{"source": "ChEMBL document CHEMBL5042470", "about": "“Combined Cardioprotective and Adipocyte Browning Effects Promoted by the Eutomer of Dual sEH/PPARγ Modulator” (J Med Chem, 2021)", "key": {"Heart [1]": {"system": "Heart", "test": "Cardioprotective activity in Langendorff-perfused wild-type C57BL/6 mouse heart assessed as increase in heart rate at 30 nM", "type": "functional, tissue-based"}, "Heart [2]": {"system": "Heart", "test": "Cardioprotective activity in Langendorff-perfused wild-type C57BL/6 mouse heart assessed as increase in heart rate at 3 nM", "type": "functional, tissue-based"}, "SGBS [3]": {"system": "SGBS", "test": "Induction of browning in human SGBS cells assessed as increase in UQCRC2 mRNA expression at 0.01 to 1 uM by qRT-PCR analysis", "type": "functional, cell-based", "settings": "dose 0.01-1 µM"}, "[4]": {"target": "T1, Peroxisome proliferator-activated receptor alpha (Homo sapiens) (UniProt Q07869)", "T1 sequence (whole entry)": "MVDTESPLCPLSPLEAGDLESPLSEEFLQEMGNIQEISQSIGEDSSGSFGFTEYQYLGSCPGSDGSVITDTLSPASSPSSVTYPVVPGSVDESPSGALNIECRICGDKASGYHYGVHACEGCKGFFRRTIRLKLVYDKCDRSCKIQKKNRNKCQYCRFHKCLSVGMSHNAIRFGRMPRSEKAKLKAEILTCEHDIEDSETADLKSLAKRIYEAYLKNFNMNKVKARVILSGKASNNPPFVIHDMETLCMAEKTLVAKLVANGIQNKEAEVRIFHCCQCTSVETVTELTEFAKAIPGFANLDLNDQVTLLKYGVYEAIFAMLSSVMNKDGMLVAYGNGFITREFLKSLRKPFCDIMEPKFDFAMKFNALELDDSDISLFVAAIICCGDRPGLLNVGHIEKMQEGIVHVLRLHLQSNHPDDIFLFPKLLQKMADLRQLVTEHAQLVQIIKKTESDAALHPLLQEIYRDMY", "test": "Agonist activity at human GAL4 DBD-fused PPARalpha ( 164 to 466 residues) LBD transfected in HEK293T cells assessed as fold activation at 10 uM incubated for 14 to 16 hrs by Renilla/Firefly dual-luciferase reporter assay", "type": "cell-based", "settings": "filed as agonist, time 14-16 hrs"}, "[5]": {"target": "T2, Peroxisome proliferator-activated receptor delta (Homo sapiens) (UniProt Q03181)", "T2 sequence (whole entry)": "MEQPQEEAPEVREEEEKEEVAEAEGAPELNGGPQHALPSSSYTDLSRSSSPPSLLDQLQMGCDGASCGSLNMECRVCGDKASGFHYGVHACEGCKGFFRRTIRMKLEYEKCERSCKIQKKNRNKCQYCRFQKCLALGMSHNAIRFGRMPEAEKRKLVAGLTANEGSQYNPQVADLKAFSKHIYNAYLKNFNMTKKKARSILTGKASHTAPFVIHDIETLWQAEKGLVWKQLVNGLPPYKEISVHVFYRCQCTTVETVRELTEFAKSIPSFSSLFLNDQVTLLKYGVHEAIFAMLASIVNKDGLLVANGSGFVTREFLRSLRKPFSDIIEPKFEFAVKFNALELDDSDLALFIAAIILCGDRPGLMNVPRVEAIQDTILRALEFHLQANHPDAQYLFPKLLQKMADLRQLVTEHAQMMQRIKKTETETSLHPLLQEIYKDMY", "test": "Agonist activity at human GAL4 DBD-fused PPARdelta LBD (138 to 441 residues) transfected in HEK293T cells assessed as fold activation at 10 uM incubated for 14 to 16 hrs by Renilla/Firefly dual-luciferase reporter assay", "type": "cell-based", "settings": "time 14-16 hrs"}, "[6]": {"target": "T3, Oxysterols receptor LXR-alpha (Homo sapiens) (UniProt Q13133)", "T3 sequence (whole entry)": "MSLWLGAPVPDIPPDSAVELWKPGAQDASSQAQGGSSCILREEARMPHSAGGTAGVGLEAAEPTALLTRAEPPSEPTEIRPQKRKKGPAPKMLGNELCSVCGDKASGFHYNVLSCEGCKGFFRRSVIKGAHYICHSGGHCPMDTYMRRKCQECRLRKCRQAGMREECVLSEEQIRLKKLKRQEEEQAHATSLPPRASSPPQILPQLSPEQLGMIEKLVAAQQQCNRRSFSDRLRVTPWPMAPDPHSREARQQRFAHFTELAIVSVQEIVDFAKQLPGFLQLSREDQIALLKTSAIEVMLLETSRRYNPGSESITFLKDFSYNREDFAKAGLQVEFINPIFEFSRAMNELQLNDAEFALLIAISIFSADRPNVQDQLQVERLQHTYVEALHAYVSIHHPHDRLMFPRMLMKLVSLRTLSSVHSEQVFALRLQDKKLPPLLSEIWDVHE", "test": "Agonist activity at human GAL4 DBD-fused LXRalpha LBD (182 to 447 residues) transfected in HEK293T cells assessed as fold activation at 10 uM incubated for 14 to 16 hrs by Renilla/Firefly dual-luciferase reporter assay", "type": "cell-based", "settings": "time 14-16 hrs"}, "[7]": {"target": "T4, Retinoic acid receptor alpha (Homo sapiens) (UniProt P10276)", "T4 sequence (whole entry)": "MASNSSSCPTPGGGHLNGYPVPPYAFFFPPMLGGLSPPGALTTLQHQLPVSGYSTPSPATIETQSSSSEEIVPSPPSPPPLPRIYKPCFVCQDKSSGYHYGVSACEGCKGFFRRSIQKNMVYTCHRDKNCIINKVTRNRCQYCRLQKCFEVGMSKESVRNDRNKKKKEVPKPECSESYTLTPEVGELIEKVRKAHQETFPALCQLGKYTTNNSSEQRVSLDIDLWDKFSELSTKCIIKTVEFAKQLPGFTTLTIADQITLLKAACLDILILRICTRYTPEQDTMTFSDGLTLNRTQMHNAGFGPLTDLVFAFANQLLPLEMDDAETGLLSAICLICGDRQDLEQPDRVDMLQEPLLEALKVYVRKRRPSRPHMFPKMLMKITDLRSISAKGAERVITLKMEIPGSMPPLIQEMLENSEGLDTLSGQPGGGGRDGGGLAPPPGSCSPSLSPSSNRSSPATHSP", "test": "Agonist activity at human GAL4 DBD-fused RARalpha LBD (177 to 462 residues) transfected in HEK293T cells assessed as fold activation at 10 uM incubated for 14 to 16 hrs by Renilla/Firefly dual-luciferase reporter assay", "type": "cell-based", "settings": "time 14-16 hrs"}, "[8]": {"target": "T5, Vitamin D3 receptor (Homo sapiens) (UniProt P11473)", "T5 sequence (whole entry)": "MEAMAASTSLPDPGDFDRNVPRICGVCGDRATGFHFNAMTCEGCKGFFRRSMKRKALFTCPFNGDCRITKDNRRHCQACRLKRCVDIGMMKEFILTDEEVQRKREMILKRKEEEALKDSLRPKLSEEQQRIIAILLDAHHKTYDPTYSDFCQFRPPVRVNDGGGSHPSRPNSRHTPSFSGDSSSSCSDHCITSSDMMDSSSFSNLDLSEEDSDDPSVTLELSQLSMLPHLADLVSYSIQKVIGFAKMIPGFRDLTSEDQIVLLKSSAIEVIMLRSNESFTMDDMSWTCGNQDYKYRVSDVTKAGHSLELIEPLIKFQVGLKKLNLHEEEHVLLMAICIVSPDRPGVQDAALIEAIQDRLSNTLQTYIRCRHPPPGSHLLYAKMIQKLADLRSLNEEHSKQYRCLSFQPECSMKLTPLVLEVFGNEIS", "test": "Agonist activity at human GAL4 DBD-fused VDR LBD (119 to 427 residues) transfected in HEK293T cells assessed as fold activation at 10 uM incubated for 14 to 16 hrs by Renilla/Firefly dual-luciferase reporter assay", "type": "cell-based", "settings": "time 14-16 hrs"}, "SGBS [9]": {"system": "SGBS", "test": "Induction of adipogenic differentiation in human SGBS cells assessed as intracellular lipid droplet accumulation at 0.01 to 1 uM measured after 4 days by Nile red staining based imaging analysis", "type": "functional, cell-based", "settings": "dose 0.01-1 µM, time 4.0 day"}, "SGBS [10]": {"system": "SGBS", "test": "Induction of adipogenic differentiation in human SGBS cells assessed as increase in perilipin A mRNA expression A at 0.01 to 1 uM by RT-PCR analysis", "type": "functional, cell-based", "settings": "dose 0.01-1 µM"}, "SGBS [11]": {"system": "SGBS", "test": "Induction of browning in human SGBS cells assessed as increase in UCP1 mRNA expression at 0.01 to 1 uM by RT-PCR analysis", "type": "functional, cell-based", "settings": "dose 0.01-1 µM"}, "SGBS [12]": {"system": "SGBS", "test": "Induction of basal respiration in human SGBS cells assessed as increase in oxygen consumption rate at 0.01 to 1 uM incubated for 14 days in presence of dibutyryl-cAMP by Seahorse XFe96 flux analyzer", "type": "functional, cell-based", "settings": "dose 0.01-1 µM, time 14.0 day"}, "SGBS [13]": {"system": "SGBS", "test": "Induction of cellular respiration in human SGBS cells assessed as increase in oxygen consumption rate at 0.01 to 1 uM with ATP-linked sequential addition of FCCP measured after 14 days by Seahorse XFe96 flux analyzer", "type": "functional, cell-based", "settings": "dose 0.01-1 µM, time 14.0 day"}, "SGBS [14]": {"system": "SGBS", "test": "Induction of proton leakage in human SGBS cells assessed as increase in oxygen consumption rate at 0.01 to 1 uM with sequential addition of oligomycin measured after 14 days by Seahorse XFe96 flux analyzer", "type": "functional, cell-based", "settings": "dose 0.01-1 µM, time 14.0 day"}, "Heart [15]": {"system": "Heart", "test": "Cardioprotective activity in Langendorff-perfused wild-type C57BL/6 mouse heart assessed as increase in heart rate at 300 nM", "type": "functional, tissue-based"}, "Mus musculus [16]": {"organism": "Mus musculus", "test": "(§1) Cardioprotective activity in Langendorff-perfused wild-type C57BL/6 mouse model of coronary occlusion induced ischemia/reperfusion assessed as increase in left ventricular developed pressure at 3 nmol/L followed by ischemia for 20 mins and measured 2 hrs after reperfusion […]", "type": "functional, organism-based", "settings": "time 140.0 min"}, "Mus musculus [17]": {"organism": "Mus musculus", "test": "as §1, with “decrease” for “increase”, “end diastolic” for “developed”", "type": "functional, organism-based", "settings": "time 140.0 min"}, "SGBS [18]": {"system": "SGBS", "test": "Induction of browning in human SGBS cells assessed as increase in UQCRC2 mRNA expression by qRT-PCR analysis", "type": "functional, cell-based", "settings": "dose 0.01-1 µM"}}, "note": "Active and inactive are the calls of the source. The calls are words filed in the database; no cut-off is given here.", "data": [{"smiles": "O=C(NC12CC3CC(CC(C3)C1)C2)N[C@H]1CC[C@H](Oc2ccc(C(=O)O)cc2)CC1", "values": [{"measurement": "Activity", "setting": "Heart [1]", "value": "Active"}, {"measurement": "Activity", "setting": "Heart [2]", "value": "inactive"}]}, {"smiles": "CC[C@H](Cc1ccc(C(=O)NCc2ccc(OC)cc2C(F)(F)F)cc1)C(=O)O", "values": [{"measurement": "Activity", "setting": "SGBS [3]", "value": "inactive"}, {"measurement": "Activity", "setting": "[4]", "value": "Active"}, {"measurement": "Activity", "setting": "[5]", "value": "inactive"}, {"measurement": "Activity", "setting": "[6]", "value": "inactive"}, {"measurement": "Activity", "setting": "[7]", "value": "inactive"}, {"measurement": "Activity", "setting": "[8]", "value": "inactive"}, {"measurement": "Activity", "setting": "SGBS [9]", "value": "Active"}, {"measurement": "Activity", "setting": "SGBS [10]", "value": "Active"}, {"measurement": "Activity", "setting": "SGBS [11]", "value": "Active"}, {"measurement": "Activity", "setting": "SGBS [12]", "value": "Active"}, {"measurement": "Activity", "setting": "SGBS [13]", "value": "Active"}, {"measurement": "Activity", "setting": "SGBS [14]", "value": "Active"}, {"measurement": "Activity", "setting": "Heart [15]", "value": "Active"}, {"measurement": "Activity", "setting": "Heart [2]", "value": "inactive"}, {"measurement": "Activity", "setting": "Mus musculus [16]", "value": "Active"}, {"measurement": "Activity", "setting": "Mus musculus [17]", "value": "Active"}]}, {"smiles": "CC[C@@H](Cc1ccc(C(=O)NCc2ccc(OC)cc2C(F)(F)F)cc1)C(=O)O", "values": [{"measurement": "Activity", "setting": "SGBS [3]", "value": "inactive"}, {"measurement": "Activity", "setting": "SGBS [9]", "value": "inactive"}, {"measurement": "Activity", "setting": "SGBS [10]", "value": "Active"}, {"measurement": "Activity", "setting": "SGBS [11]", "value": "inactive"}, {"measurement": "Activity", "setting": "SGBS [12]", "value": "Active"}, {"measurement": "Activity", "setting": "SGBS [13]", "value": "Active"}, {"measurement": "Activity", "setting": "SGBS [14]", "value": "Active"}]}, {"smiles": "CN(CCOc1ccc(CC2SC(=O)NC2=O)cc1)c1ccccn1", "note": "(configuration not stated)", "values": [{"measurement": "Activity", "setting": "SGBS [10]", "value": "Active"}, {"measurement": "Activity", "setting": "SGBS [18]", "value": "Dose-Dependent Effect"}]}]}
